Where two headings read alike, the source gives them in different places.
Legend:
Caco-2 cells = assay: Caco-2 permeability assay (apical to basal); assay type: in vitro ADME, human; conditions: 50 μM, 2 hours at 37° C.
Description: Caco-2 cells are widely used as an in vitro model for prediciting human drug absorption. The Caco-2 cell line is derived from human colorectal carcinoma, and when cultured, the cells spontaneously differentiate into monolayers of polarized enterocytes.
Experiments were done using the CacoReay permeability kit (ReadyCell, Barcelona, Spain).
On the same week of the reception of the kit, the shipping medium of the cells was liquefied according to user's manual provided with the kit, after which the shipping medium was replaced with fresh Dulbecco's Modified Eagle's Medium (DMEM, low-glucose).
Three days later, equivalent to day 20 of cell culture, the quality of the barrier system and the presence of tight junctions between the cells was checked by measuring the trans endothelial electrical resistance (TEER) of the cell barrier. […]
For the transport experiments (apical to basal), the cells were incubated with the solutions containing the compounds for 2 hours at 37° C. Afterwards, the content of the compartments was recovered and analyzed by HPLC (Column C18 Sunfire 100 mm×4.6 mm, […], 100 Å, Waters; Flow rate 1 mL/min; Gradient 0-100% B in 8 min A=0.045% Trifluoracetic acid in H2O and B 0.036% Trifluoracetic acid in acetonitrile, detection at 220 nm). […]
In the Caco-2 permeability assay, the percentage of transport (T %) for the compounds was calculated according to the following equation: […]

5-HT1A receptor = molecular target: T1, 5-HT1A receptor (Homo sapiens, UniProt P08908); assay: Selectivity profile, radioligand binding (SafetyScreen44 panel); conditions: 100 μM compound (1% DMSO); read-out: % inhibition of control specific binding
T1 construct: purchased Cerep/Eurofins SafetyScreen44 panel
T1 sequence (P08908 1-422): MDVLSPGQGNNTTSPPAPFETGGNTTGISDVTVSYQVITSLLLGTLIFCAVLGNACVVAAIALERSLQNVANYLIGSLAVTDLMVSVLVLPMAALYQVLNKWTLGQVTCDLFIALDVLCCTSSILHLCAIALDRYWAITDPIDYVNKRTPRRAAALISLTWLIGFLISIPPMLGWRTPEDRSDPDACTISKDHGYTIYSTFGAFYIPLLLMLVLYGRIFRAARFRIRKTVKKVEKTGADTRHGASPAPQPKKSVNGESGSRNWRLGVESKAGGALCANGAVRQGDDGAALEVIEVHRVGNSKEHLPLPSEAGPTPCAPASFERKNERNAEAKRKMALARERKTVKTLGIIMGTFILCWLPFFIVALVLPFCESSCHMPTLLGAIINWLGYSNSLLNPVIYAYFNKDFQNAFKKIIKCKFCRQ
Protocol: The experiment was performed using the SafetyScreen44® panel from Cerep/Eurofins. Compounds were tested at a concentration 100 μM (in 1% DSMO).
Compound binding was calculated as a percentage inhibition of the binding of a radioactively labeled ligand specific for each target.
The results are expressed as a percent inhibition of control specific binding
[formula] obtained in the presence of tested compounds.
Results showing an inhibition higher than 50% are considered to represent significant effects of the test compounds.

[1] = In vivo brain exposure (plasma and brain AUC); conditions: male, mouse, mice, 5 mg/kg, read-out: % BBB (brain exposure, plasma and brain AUC ratio)
Protocol: For each compound, twenty-four adult male mice, aged 7-8 weeks on the day of experiment, were used for the study and were allocated randomly between the groups. The experiments were performed on 3 groups of animals as described in the table below:
After compound administration, terminal blood was performed at several time points after intraperitoneal (Comp. ex. 3) or oral administration (Ex. 1).
After transcardiac perfusion with phosphate buffered saline, brains were also collected. All the samples were stored at −80° C. until bioanalysis.
The plasma samples were thawed at room temperature (RT), and the samples were protein precipitated with a 2-fold volume of acetonitrile, containing 20 ng/mL phenacetin as an internal standard. The samples were mixed throughout, followed by centrifugation for 20 min at 2,200×g. The supernatants were diluted 1:1 with 150 mM phosphate buffered saline (pH 7.4) and pipetted onto UPLC 96-well plates to wait for the analysis. […]
Levels of the compounds of Comp. Ex. 3 and example 1 were quantified from mouse plasma and brain. Samples were analyzed using a fit-on-purpose bioanalytical method using a UPLC/QE-Orbitrap-Mass Spectroscopy.
The concentration (ng/mL) of the compounds along time was plotted and the area under the curve (AUC) in plasma and brain tissue was calculated using Graphpad Prism™ 5.0. The plasma to brain ratio was calculated as follows: […]

Row | Structure (SMILES) | % T (percentage of transport), Caco-2 (Caco-2 cells) [%] | inhibition at 100 µM (5-HT1A receptor) [%] | Kp ([1]; PO) | Kp ([1]; IP)
1 | N#C[C@@H]1CCCN1C(=O)[C@@H]1C[C@@H](F)CN1C(=O)c1cc(F)c(OCc2ccccc2)c(F)c1 [Example 1, (S)-1-((2S,4R)-1-(4-(benzyloxy)-3,5-difluorobenzoyl)-4-fluoropyrrolidine-2-carbonyl)pyrrolidine-2-carbonitrile] | 45 | -6.3 | 0.253 | –
2 | COc1cc(C(=O)N2CC(F)(F)C[C@H]2C(=O)N2CCC[C@H]2C#N)cc(OC)c1OCc1ccccc1 [Comp Ex. 3, (S)-1-((2S)-1-(4-(benzyloxy)-3,5-dimethoxybenzoyl)-4,4-difluoropyrrolidine-2-carbonyl)pyrrolidine-2-carbonitrile] | 5.7 | 64.6 | – | 0.21
